In patent US20210290576A1, “STRUCTURALLY MODIFIED FATTY ACIDS FOR IMPROVING GLYCEMIC CONTROL AND TREATING INFLAMMATORY BOWEL DISEASE” (NORTHSEA THERAPEUTICS B.V., priority 2018, published 2021):
Read-outs that look alike come from different tables or passages of the source.

Columns and labels:
[1] = tested on: ob/ob mice, rodent model of T2DM; test: Oral glucose (2 g/kg) tolerance test after 5 weeks of treatment in ob/ob mice; format: in vivo; conditions: 15, 45 and 135 mg/kg bw/d
Protocol: Mice were fed a standard low-fat (7% w/w fat) diet. After 4-weeks, the mice were fasted for 4 hours and the effects of Compound A were assessed. Assessment of the effects of Compound A included basal levels of blood glucose, plasma insulin, HbA1c levels, and homeostatic model assessment of insulin resistance (HOMA-IR). HOMA-IR is an assessment of insulin resistance and is calculated by the following formula: fasting insulin (micro U/L)×fasting glucose […]/22.5.
After 5 weeks, an oral glucose (2 g/kg) tolerance test was performed after a 4 hour fast.

[2] = tested on: plasma insulin; test: Plasma insulin at 24 h after OGTT in lean male SPD rats; format: in vivo, Sprague-Dawley (SPD) rats; conditions: non-significant
Protocol: (§1) Evaluation of the Acute Effects of Compound a and Compound B Upon Active GLP-1 wconcentrations during an oral glucose tolerance test (OGTT) and at 24 h in lean male SPD Rats
(§2) To establish the acute effects of oral administration of Compound A and Compound B upon active GLP-1 and insulin concentrations, lean (about 300 g) male Sprague-Dawley (SPD) rats were divided into groups (n=6-8) and fed 74 and 84 mg/kg body weight of Compound A or Compound B respectively, either with or without concurrent administration of a dipeptidyl peptidase 4 (DPP-4) inhibitor 60 minutes prior to an oral glucose tolerance test (OGTT) as outlined below. Parallel groups receiving either corn oil alone (corn oil+vehicle, n=10) or corn oil and a DPP-4 inhibitor (“DPP-4 i”) (corn oil+(DPP-4 i), n=10) were included as controls. The DPP-4 inhibitor was linagliptin.
(§3) A second oral dose of 74 and 84 mg/kg bodyweight of Compound A or Compound B respectively was administered at 240 minutes and ad lib feeding was initiated. A second dose of DPP-4 inhibitor was administered at 480 mins prior to lights out. Blood samples were collected at 24 h for measurement of active GLP-1 and insulin. All values are mean, figures depict mean values (SEM).

[3] = tested on: ob/ob mice, T2DM rodent model; test: Glucose tolerance after 21-day treatment in high-fat diet fed ob/ob mice; format: in vivo; conditions: 112 mg/kg once daily via diet, 21 days
Protocol: This study was carried out to assess the effects of chronic treatment with Compound B or Compound A on glucose tolerance in a T2DM rodent model.
For assessing the effects of Compound A, ob/ob mice were fed a high-fat diet (comprising 2% cholesterol, 40% fat (containing 18% trans-fatty acids), 20% fructose) for 15 weeks starting at age 5 weeks. […] After 21 days the mice received a 2 g/kg oral glucose load. After the oral glucose load, plasma glucose was measured at multiple time points from 0-240 minutes.

[4] = tested on: active GLP-1; test: Active GLP-1 during an oral glucose tolerance test (OGTT) and at 24 h in lean male SPD rats; format: in vivo, Sprague-Dawley (SPD) rats
Protocol: as §1, §2, §3

[5] = tested on: atherogenic lipids; conditions: APOE*3.CETP mice; cited from earlier work
[6] = tested on: atherogenic lipids; conditions: humans; cited from earlier work

| SMILES | glucose levels in oral glucose tolerance test [1] | increase of plasma insulin concentrations at 24 h versus corn oil+vehicle and corn oil+DPP4 inhibitor ([2]; compound alone) [%] | increase of plasma insulin concentrations at 24 h versus corn oil+vehicle and corn oil+DPP4 inhibitor ([2]; in combination with DPP4 inhibitor (linagliptin)) [%] | glucose tolerance compared to vehicle ([3]; 2 g/kg oral glucose load) | AUC glucose ([3]; p<0.01) | active GLP-1 concentrations at 24 h versus corn oil+vehicle ([4]; in combination with DPP4 inhibitor (linagliptin), Compound A 74 mg/kg, Compound B 84 mg/kg, two oral doses) | atherogenic lipids [5] | atherogenic lipids [6] | active GLP-1 (AUC 0-60 mins) versus corn oil alone ([4]; corn oil+DPP4 inhibitor alone) | active GLP-1 concentrations at 24 h versus corn oil alone ([4]; corn oil+DPP4 inhibitor alone) |
| --- | --- | --- | --- | --- | --- | --- | --- | --- | --- | --- |
| CC/C=C\C/C=C\C/C=C\C/C=C\C/C=C\CCCCOC(CC)C(=O)O (stereo not shown) [Compound A, 2-(((5Z,8Z,11Z,14Z,17Z)-icosa-5,8,11,14,17-pentaen-1-yl)oxy)butanoic acid] | dose-dependent response in lowering glucose levels | 25 | 25 | significantly improved glucose tolerance from 15 minutes through 90 minutes | significantly reduced | significantly (p<0.05) increased | significantly reduce atherogenic lipids | significantly reduce atherogenic lipids |  |  |
| CC#CCn1c(N2CCC[C@@H](N)C2)nc2c1c(=O)n(Cc1nc(C)c3ccccc3n1)c(=O)n2C [DPP4 inhibitor, linagliptin, reference compound] |  |  |  |  |  |  |  |  | no significant effect | no significant effect |
